Assay results published in PubChem BioAssay AID1259407 (Chemical Carcinogenesis Research Information System (CCRIS), 2018).
The source made the active and inactive calls. No rule for the calls is given here.

Test system: CCRIS mutagenicity, Ames/micronucleus/aberration tests
Test: CCRIS mutagenicity studies
[1] = Test System: AMES SALMONELLA TYPHIMURIUM, Strain/Indicator: TA100, Metabolic Activation: NONE, Method: STANDARD PLATE
[2] = Test System: AMES SALMONELLA TYPHIMURIUM, Strain/Indicator: TA98, Metabolic Activation: NONE, Method: PREINCUBATION
[3] = Test System: AMES SALMONELLA TYPHIMURIUM, Strain/Indicator: TA100, Metabolic Activation: NONE, Method: PREINCUBATION
[4] = Test System: AMES SALMONELLA TYPHIMURIUM, Strain/Indicator: TA102, Metabolic Activation: NONE, Method: PREINCUBATION
[5] = Test System: AMES SALMONELLA TYPHIMURIUM, Strain/Indicator: TA98, Metabolic Activation: NONE, Method: STANDARD PLATE
[6] = Test System: AMES SALMONELLA TYPHIMURIUM, Strain/Indicator: TA98, Metabolic Activation: RAT, LIVER, S-9, AROCLOR 1254, Method: STANDARD PLATE
[7] = Test System: AMES SALMONELLA TYPHIMURIUM, Strain/Indicator: TA100, Metabolic Activation: RAT, LIVER, S-9, AROCLOR 1254, Method: STANDARD PLATE
[8] = Test System: AMES SALMONELLA TYPHIMURIUM, Strain/Indicator: TA1538, Metabolic Activation: NONE, Method: STANDARD PLATE
[9] = Test System: AMES SALMONELLA TYPHIMURIUM, Strain/Indicator: TA1538, Metabolic Activation: RAT, LIVER, S-9, AROCLOR 1254, Method: STANDARD PLATE

With `Oc1cnc2ccccc2c1` the mutagenic call [1] was “inactive; negative” and the mutagenic call (Test System: AMES SALMONELLA TYPHIMURIUM, Strain/Indicator: TA100, Metabolic Activation: RAT, LIVER, S-9, AROCLOR 1254 (10% OR 20%), Method: STANDARD PLATE) was “inactive; negative”.
`CC1=NCCc2c1[nH]c1cc(O)ccc21` was tested, and the mutagenic call (Test System: AMES SALMONELLA TYPHIMURIUM, Strain/Indicator: TA97, Metabolic Activation: NONE, Method: PREINCUBATION) was “inactive; negative”, the mutagenic call (Test System: AMES SALMONELLA TYPHIMURIUM, Strain/Indicator: TA97, Metabolic Activation: RAT, LIVER, S-9, AROCLOR 1254, Method: PREINCUBATION) was “inactive; negative” and the mutagenic call [2] was “inactive; negative”. For the same compound, the mutagenic call (Test System: AMES SALMONELLA TYPHIMURIUM, Strain/Indicator: TA98, Metabolic Activation: RAT, LIVER, S-9, AROCLOR 1254, Method: PREINCUBATION) was “inactive; negative”, the mutagenic call [3] was “inactive; negative” and the mutagenic call (Test System: AMES SALMONELLA TYPHIMURIUM, Strain/Indicator: TA100, Metabolic Activation: RAT, LIVER, S-9, AROCLOR 1254, Method: PREINCUBATION) was “inactive; negative”. The mutagenic call [4] was “inactive; negative” and the mutagenic call (Test System: AMES SALMONELLA TYPHIMURIUM, Strain/Indicator: TA102, Metabolic Activation: RAT, LIVER, S-9, AROCLOR 1254, Method: PREINCUBATION) was “inactive; negative”.
For `COc1cc(N=Nc2ccccc2)ccc1N=Nc1c(S(=O)(=O)O)cc2ccc(N)cc2c1O`, the mutagenic call [5] was “inactive; negative”, the mutagenic call [6] was “active; positive” and the mutagenic call [1] was “inactive; negative”. The mutagenic call [7] was “active; positive”, the mutagenic call [8] was “inactive; negative” and the mutagenic call [9] was “active; positive”.
With `CC(=O)Nc1ccc(Oc2ccc(Cl)cc2)cc1` the mutagenic call [1] was “inactive; negative” and the mutagenic call (Test System: AMES SALMONELLA TYPHIMURIUM, Strain/Indicator: TA100, Metabolic Activation: RAT, LIVER, S-9, KANECLOR 500, Method: STANDARD PLATE) was “active; positive”.
`Nc1ncc(/C=C/c2ccc([N+](=O)[O-])o2)nn1` was tested, and the mutagenic call (Test System: E. COLI, Strain/Indicator: WP2, Metabolic Activation: NONE, Method: SPOT) was “active; positive”, the mutagenic call (Test System: E. COLI, Strain/Indicator: WP2 UVRA, Metabolic Activation: NONE, Method: SPOT) was “active; positive” and the mutagenic call (Test System: E. COLI, Strain/Indicator: WP2 UVRA, Metabolic Activation: NONE, Method: STANDARD PLATE) was “active; positive”.
With `O=c1[nH]sc2cc([N+](=O)[O-])ccc12` the mutagenic call [1] was “active; positive”.
In the case of `N[C@@H](CCC(=O)N[C@@H](CS)C(=O)NCC(=O)O)C(=O)O`, the mutagenic call (Test System: AMES SALMONELLA TYPHIMURIUM, Strain/Indicator: TA92, Metabolic Activation: RAT, KIDNEY, S-9, Method: PREINCUBATION) is reported as “active; positive”, the mutagenic call (Test System: AMES SALMONELLA TYPHIMURIUM, Strain/Indicator: TA92, Metabolic Activation: RAT, KIDNEY, S-9, Method: STANDARD PLATE) is reported as “active; positive” and the mutagenic call (Test System: AMES SALMONELLA TYPHIMURIUM, Strain/Indicator: TA97, Metabolic Activation: RAT, KIDNEY, S-9, Method: PREINCUBATION) is reported as “active; positive”. The mutagenic call (Test System: AMES SALMONELLA TYPHIMURIUM, Strain/Indicator: TA97, Metabolic Activation: RAT, KIDNEY, S-9, Method: STANDARD PLATE) was “active; positive”, the mutagenic call [3] was “inactive; negative” and the mutagenic call (Test System: AMES SALMONELLA TYPHIMURIUM, Strain/Indicator: TA100, Metabolic Activation: RAT, KIDNEY, S-9, Method: PREINCUBATION) was “active; positive”. For the same compound, the mutagenic call (Test System: AMES SALMONELLA TYPHIMURIUM, Strain/Indicator: TA100, Metabolic Activation: RAT, KIDNEY, S-9, Method: STANDARD PLATE) was “active; positive”, the mutagenic call [4] was “inactive; negative” and the mutagenic call (Test System: AMES SALMONELLA TYPHIMURIUM, Strain/Indicator: TA102, Metabolic Activation: NONE, Method: STANDARD PLATE) was “inactive; negative”. For the same compound, the mutagenic call (Test System: AMES SALMONELLA TYPHIMURIUM, Strain/Indicator: TA102, Metabolic Activation: RAT, KIDNEY, S-9, Method: PREINCUBATION) was “active; positive”, the mutagenic call (Test System: AMES SALMONELLA TYPHIMURIUM, Strain/Indicator: TA104, Metabolic Activation: RAT, KIDNEY, S-9, Method: PREINCUBATION) was “active; positive” and the mutagenic call (Test System: AMES SALMONELLA TYPHIMURIUM, Strain/Indicator: TA104, Metabolic Activation: RAT, KIDNEY, S-9, Method: STANDARD PLATE) was “inactive; negative”. The mutagenic call (Test System: AMES SALMONELLA TYPHIMURIUM, Strain/Indicator: TA1535, Metabolic Activation: RAT, KIDNEY, S-9, Method: PREINCUBATION) was “inactive; negative”, the mutagenic call (Test System: AMES SALMONELLA TYPHIMURIUM, Strain/Indicator: TA1537, Metabolic Activation: RAT, KIDNEY, S-9, Method: PREINCUBATION) was “inactive; negative” and the mutagenic call (Test System: Mouse lymphoma, Strain/Indicator: L5178Y (tk+/tk-), Metabolic Activation: None, Method: Suspension/plate) was “active; equivocal (previous evaluation positive)”. For the same compound, the mutagenic call (Test System: Mouse lymphoma, Strain/Indicator: L5178Y (tk+/tk-), Metabolic Activation: Rat, Liver, S-9, Aroclor 1254, Method: Suspension/plate) was “inactive; negative”.
For `CC(C)(C)C1=CC(=CC=C2C=C(C(C)(C)C)C(=O)C(C(C)(C)C)=C2)C=C(C(C)(C)C)C1=O`, the mutagenic call [2] was “inactive; negative”, the mutagenic call (Test System: AMES SALMONELLA TYPHIMURIUM, Strain/Indicator: TA98, Metabolic Activation: RAT, LIVER, S-9, Method: PREINCUBATION) was “inactive; negative” and the mutagenic call [3] was “inactive; negative”. For the same compound, the mutagenic call (Test System: AMES SALMONELLA TYPHIMURIUM, Strain/Indicator: TA100, Metabolic Activation: RAT, LIVER, S-9, Method: PREINCUBATION) was “inactive; negative”.
`OC1c2ccc3c(c2C2OC2C1O)-c1cccc2cccc-3c12` (configuration not stated) was tested, and the mutagenic call (Test System: AMES SALMONELLA TYPHIMURIUM, Strain/Indicator: TA97A, Metabolic Activation: NONE, Method: PREINCUBATION) was “active; positive”, the mutagenic call [2] was “active; positive” and the mutagenic call [3] was “active; positive”.
For `NNc1nncc2ccncc12`, the mutagenic call [2] was “active; positive”, the mutagenic call (Test System: AMES SALMONELLA TYPHIMURIUM, Strain/Indicator: TA98, Metabolic Activation: RAT, LIVER, S-9, PCB, Method: PREINCUBATION) was “active; positive” and the mutagenic call [3] was “active; positive”. For the same compound, the mutagenic call (Test System: AMES SALMONELLA TYPHIMURIUM, Strain/Indicator: TA100, Metabolic Activation: RAT, LIVER, S-9, PCB, Method: PREINCUBATION) was “active; positive”.
For `Nc1c(C(=O)O)cc([N+](=O)[O-])c2c1C(=O)c1ccccc1C2=O`, the mutagenic call [5] was “active; positive”, the mutagenic call [6] was “active; positive” and the mutagenic call [1] was “active; positive”. The mutagenic call [7] was “active; positive”, the mutagenic call (Test System: AMES SALMONELLA TYPHIMURIUM, Strain/Indicator: TA1535, Metabolic Activation: NONE, Method: STANDARD PLATE) was “inactive; negative” and the mutagenic call (Test System: AMES SALMONELLA TYPHIMURIUM, Strain/Indicator: TA1537, Metabolic Activation: NONE, Method: STANDARD PLATE) was “active; positive”. The mutagenic call (Test System: AMES SALMONELLA TYPHIMURIUM, Strain/Indicator: TA1537, Metabolic Activation: RAT, LIVER, S-9, AROCLOR 1254, Method: STANDARD PLATE) was “active; positive”, the mutagenic call [8] was “active; positive” and the mutagenic call [9] was “active; positive”. The mutagenic call (Test System: AMES SALMONELLA TYPHIMURIUM, Strain/Indicator: TA1978, Metabolic Activation: NONE, Method: STANDARD PLATE) was “active; positive”.
With `O=[N+]([O-])c1ccc2c(Cl)nsc2c1` the mutagenic call [5] was “active; positive”.
In the case of `C=CC[C@]1(O)CC[C@H]2[C@@H]3CCC4=CCCC[C@@H]4[C@H]3CC[C@@]21C`, the mutagenic call (End Point: IN VIVO MICRONUCLEUS, Test System: HEPATOCYTES, Species: RAT, Strain/Sex: SPRAGUE-DAWLEY/FEMALE, Route: INTRAGASTRIC (GAVAGE)) is reported as “inactive; negative (increase not significant)”.
For `CCOC(=O)N(CCCC(=O)c1cccnc1)N=O`, the mutagenic call [3] was “active; positive”.
